We go through two molecules from publication PMC4546427, “Stereoselective Regulation of P-gp Activity by Clausenamide Enantiomers in Caco-2, KB/KBv and Brain Microvessel Endothelial Cells” (PLoS ONE, 2015).

Molecules are shown by their SMILES.

On the set-up of data set [1]: method as in PMID 23684935. Conditions: cited from earlier work.
Another data set concerns Caco-2 cells. Nature of the data set: Uptake of CLA enantiomers in Caco-2 cells (LC-MS/MS). The data set is classed as in vitro ADME, Human. Conditions: for Intracellular concentration: Mean±SD, n = 3. Here is the method: Caco-2 cells on 6-well plates (5 × 10^5 cells/well) were cultured in MEM containing 10% (v/v) FBS, 1% (v/v) NEAA, 100 units/mL penicillin and 100 μg/mL streptomycin sulphate at 37°C with 95% air and 5% CO2. When 80%–90% confluence was observed using an inverted light microscope, the cells were treated, respectively, with (−)CLA or (+)CLA at 1, 2.5 and 5 μmol/L for 2 h, washed 3 times with ice-cold PBS, collected into 1.5-mL Eppendorf tubes and centrifuged at 1500 rpm for 5 min. The precipitates were lysed with 80 μL of lysis buffer described above, frozen with liquid nitrogen, then thawed in water at 37°C three times, and then centrifuged at 10,000 rpm for 10 min (4°C). We used 10 μL of supernatant for the determination of protein concentration using Lowry’s method with bovine serum albumin as the standard, and the residue of the supernatants was subjected to extraction with ethyl acetate. The internal standard (IS) was 20 μL of glipizide (5.2 μg/mL). Extracted CLA enantiomer and glipizide were measured by a liquid chromatography-tandem mass spectrometr(LC-MS/MS).
The LC-MS/MS system consisted of an Alliance HT 2795 LC pump, an autosampler, and a Micromass Quattro Premier tandem quadrupole mass spectrometer with an electrospray ionization (ESI) source and Masslynx version 4.1 software (Waters Corp., Milford, MA, USA). The separation of CLA enantiomer and glipizide was performed using an XBridge C18 column (2.1 mm × 50 mm; i.d., 3.5 μm) (Waters Corp., Milford, MA, USA). The column temperature was maintained at 22°C, and the sample injection volume was 20 μL in the autosampler at 4°C. Mobile phases A and B were water with 0.1% (v/v) acetic acid and acetonitrile with 0.1% (v/v) acetic acid, respectively. Gradient elution was used at a flow rate of 0.25 mL/min for 8 min with 80% A and 20% B for 0–2 min, 5% A and 95% B for 2–4 min and 80% A and 20% B for 4.01–8 min. The LC system was connected to the mass spectrometer by an electrospray interface. The positive-ion ESI mode was selected, and the electrospray capillary voltage was 3.5 kV. Desolvation gas (ultrapure nitrogen) flow and cone gas flow were provided separately at rates of 600 L/h and 50 L/h, and source and desolvation temperatures were set at 110°C and 450°C, respectively. Argon was used as a collision gas in collision-induced dissociation of precursor ions at a flow rate of 0.27 mL/min. The data were acquired using multiple reaction monitoring mode and analysed by Masslynx software 4.1. The main parameters (retention time, ion channel, cone voltage and collision energy) were as follows: 2.66 min, 298.2–174.1, 25 V and 17 V for CLA enantiomer; and 2.97 min, 446.7–321.2, 25 V and 12 V for glipizide (IS), respectively. The lower limit of quantification of CLA enantiomer was 0.25 ng/mL. The mean relative recovery was 89%, and intra-assay and inter-assay coefficients of variation were <15%. The range of linearity was 0.25–200 ng/mL with r = 0.999. The concentrations of (−) or (+)CLA were quantified by standard curves according to their peak areas against the IS.

The subject of a further data set is CYP3A1. Further details: method as in PMID 23684935, PMID 12692891. Conditions: rat liver; cited from earlier work.
The mark [2] stands for this setting: dose of CLA enantiomer 1.0 μmol/L, 2 h.
[3] abbreviates: dose of CLA enantiomer 2.5 μmol/L, 2 h.
The mark [4] stands for this setting: dose of CLA enantiomer 5.0 μmol/L, 2 h.

`CN1C(=O)[C@H](O)[C@@H](c2ccccc2)[C@H]1[C@H](O)c1ccccc1` [(+)CLA, 3R,4S,5S,6R-CLA]: the “Ratio [(+)/(−)] of cumulative amounts of biliary excretion” value in data set [1] was 3.49. Also, the “Ratio [(+)/(−)] of cumulative amounts of urinary excretion” value in data set [1] is 3.81. In addition, the figures for the Intracellular concentration in the data set on Caco-2 cells (setting [2]), with Caco-2 cells (setting [3]) and in the data set with Caco-2 cells (setting [4]) were 1.093 ± 0.233 ng/mL, 2.228 ± 0.065 ng/mL and 4.677 ± 1.029 ng/mL, respectively.

In the case of `CN1C(=O)[C@@H](O)[C@H](c2ccccc2)[C@@H]1[C@@H](O)c1ccccc1` [(−)CLA, 3S, 4R, 5R, 6S-clausenamide], the “Induction of CYP3A1 expression, comparison of enantiomers” value in the data set with CYP3A1 is given as “higher expression of CYP3A1 than the (+)-isomer”. Further, the “Ratio (-)/(+) of intracellular concentrations” value in the data set with Caco-2 cells (1.0 μmol/L, 2 h) is 2.593; in the data set on Caco-2 cells (2.5 μmol/L, 2 h) it was 2.167; in the data set on Caco-2 cells (5.0 μmol/L, 2 h) it was 1.893; in the data set on Caco-2 cells (in the presence of cyclosporine A, data not shown), 1.091. Also, the Intracellular concentration with Caco-2 cells (setting [2]) was 2.834 ± 0.808 ng/mL; with Caco-2 cells (setting [3]), 4.829 ± 0.603 ng/mL; in the data set with Caco-2 cells (setting [4]), 8.853 ± 2.505 ng/mL.
